ChEMBL document CHEMBL1201862, “PubChem BioAssay data set” (2004)
Calls of active or inactive are those of the source.

What was measured:
Cytochrome P450 2C19 = Cytochrome P450 2C19 (Homo sapiens, UniProt P33261); experiment: Cytochrome panel assay with activity outcomes. Panel member name: p450-cyp2c19 Compounds with AC50 equal or less than 10 uM are considered active; assay type: functional
Cytochrome P450 1A2 = target: T1, Cytochrome P450 1A2 (Homo sapiens, UniProt P05177);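 note: PubChem cytochrome P450 panel assay, CYP1A2 panel member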
T1 sequence (P05177 whole entry): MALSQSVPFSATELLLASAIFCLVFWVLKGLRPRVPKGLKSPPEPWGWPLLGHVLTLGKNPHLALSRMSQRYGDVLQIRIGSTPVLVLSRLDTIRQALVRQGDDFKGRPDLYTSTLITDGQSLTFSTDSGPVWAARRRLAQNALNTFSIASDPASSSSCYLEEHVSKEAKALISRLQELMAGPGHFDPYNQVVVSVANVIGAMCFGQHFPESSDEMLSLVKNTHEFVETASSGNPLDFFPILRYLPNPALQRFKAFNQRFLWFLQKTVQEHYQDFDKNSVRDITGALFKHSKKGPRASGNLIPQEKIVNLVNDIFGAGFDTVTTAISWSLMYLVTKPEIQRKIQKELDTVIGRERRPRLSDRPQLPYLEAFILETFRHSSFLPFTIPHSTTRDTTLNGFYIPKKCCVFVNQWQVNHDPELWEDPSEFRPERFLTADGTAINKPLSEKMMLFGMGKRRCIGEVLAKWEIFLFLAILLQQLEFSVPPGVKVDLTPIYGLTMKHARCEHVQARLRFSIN

INS1 = experiment: INS-1E survival protection against cytokine death – cell-based, luminescence, retest, dose response (AID 449756); assay type: functional; settings: Rattus norvegicus;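 note: cell death triggered by IL-1 beta plus TNF-alpha plus IFN-gamma mixture; protective hits raise ATP signal compared with cytokine alone wells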
Cytochrome P450 2C9 = Cytochrome P450 2C9 (Homo sapiens, UniProt P11712)
Sequence of Cytochrome P450 2C9 (P11712 whole entry): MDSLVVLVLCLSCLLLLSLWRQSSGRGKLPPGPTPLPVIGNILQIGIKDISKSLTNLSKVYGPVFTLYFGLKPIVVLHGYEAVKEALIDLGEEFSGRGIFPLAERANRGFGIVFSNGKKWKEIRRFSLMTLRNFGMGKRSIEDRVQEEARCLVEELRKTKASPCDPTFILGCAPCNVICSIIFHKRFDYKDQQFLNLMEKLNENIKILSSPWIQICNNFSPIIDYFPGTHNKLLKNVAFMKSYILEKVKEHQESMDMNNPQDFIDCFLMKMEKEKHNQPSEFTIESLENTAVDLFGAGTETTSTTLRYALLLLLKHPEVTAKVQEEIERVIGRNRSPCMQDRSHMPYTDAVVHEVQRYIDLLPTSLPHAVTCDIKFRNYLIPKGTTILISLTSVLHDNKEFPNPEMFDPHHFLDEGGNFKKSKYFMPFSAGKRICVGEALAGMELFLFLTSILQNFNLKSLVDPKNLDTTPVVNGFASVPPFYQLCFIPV

[1] = target: T2, Heat shock factor protein 1 (Mus musculus, UniProt P38532); experiment: decrease of HSF1-responsive luciferase luminescence – cell-based, NIH3T3, dose retest, confirmation (AID 2382); assay type: functional;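 note: NIH3T3 fibroblasts with HSF1-driven luciferase reporter stressed by proteasome inhibitor MG132; luminescence from HSF1-driven luciferase expression after 8 hours of MG132 stress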
T2 sequence (P38532 whole entry): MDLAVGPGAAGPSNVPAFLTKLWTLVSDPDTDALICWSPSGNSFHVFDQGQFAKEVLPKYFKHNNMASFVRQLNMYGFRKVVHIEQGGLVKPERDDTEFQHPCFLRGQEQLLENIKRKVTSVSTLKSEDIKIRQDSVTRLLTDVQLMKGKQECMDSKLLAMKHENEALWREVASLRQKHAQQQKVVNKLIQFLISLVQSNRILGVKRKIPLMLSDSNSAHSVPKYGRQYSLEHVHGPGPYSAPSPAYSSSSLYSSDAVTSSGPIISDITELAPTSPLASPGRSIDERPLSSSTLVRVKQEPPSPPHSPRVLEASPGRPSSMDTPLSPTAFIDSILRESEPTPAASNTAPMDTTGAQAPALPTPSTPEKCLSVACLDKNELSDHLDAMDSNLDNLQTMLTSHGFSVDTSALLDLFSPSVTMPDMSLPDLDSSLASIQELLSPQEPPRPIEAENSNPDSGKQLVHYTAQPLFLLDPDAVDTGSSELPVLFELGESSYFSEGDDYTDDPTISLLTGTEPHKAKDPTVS

Cytochrome P450 3A4 = Cytochrome P450 3A4 (Homo sapiens, UniProt P08684);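 note: CYP3A4 tested as one member of a cytochrome P450 panel screen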
Sequence of Cytochrome P450 3A4 (P08684 whole entry): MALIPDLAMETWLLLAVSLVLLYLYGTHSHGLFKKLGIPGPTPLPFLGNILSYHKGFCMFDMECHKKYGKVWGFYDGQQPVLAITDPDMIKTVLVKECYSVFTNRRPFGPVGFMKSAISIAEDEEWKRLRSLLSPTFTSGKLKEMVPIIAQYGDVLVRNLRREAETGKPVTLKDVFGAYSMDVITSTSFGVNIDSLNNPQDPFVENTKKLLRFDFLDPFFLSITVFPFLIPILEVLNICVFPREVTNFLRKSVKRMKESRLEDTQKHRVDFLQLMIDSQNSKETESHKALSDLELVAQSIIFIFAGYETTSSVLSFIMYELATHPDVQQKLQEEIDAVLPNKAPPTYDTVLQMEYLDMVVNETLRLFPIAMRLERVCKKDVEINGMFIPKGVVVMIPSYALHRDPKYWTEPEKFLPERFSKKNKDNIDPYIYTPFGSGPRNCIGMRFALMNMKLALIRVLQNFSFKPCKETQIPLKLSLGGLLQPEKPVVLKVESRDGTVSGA

Cytochrome P450 2D6 = Cytochrome P450 2D6 (Homo sapiens, UniProt P10635);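 note: CYP2D6 member of a cytochrome P450 panel assay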
Sequence of Cytochrome P450 2D6 (P10635 whole entry): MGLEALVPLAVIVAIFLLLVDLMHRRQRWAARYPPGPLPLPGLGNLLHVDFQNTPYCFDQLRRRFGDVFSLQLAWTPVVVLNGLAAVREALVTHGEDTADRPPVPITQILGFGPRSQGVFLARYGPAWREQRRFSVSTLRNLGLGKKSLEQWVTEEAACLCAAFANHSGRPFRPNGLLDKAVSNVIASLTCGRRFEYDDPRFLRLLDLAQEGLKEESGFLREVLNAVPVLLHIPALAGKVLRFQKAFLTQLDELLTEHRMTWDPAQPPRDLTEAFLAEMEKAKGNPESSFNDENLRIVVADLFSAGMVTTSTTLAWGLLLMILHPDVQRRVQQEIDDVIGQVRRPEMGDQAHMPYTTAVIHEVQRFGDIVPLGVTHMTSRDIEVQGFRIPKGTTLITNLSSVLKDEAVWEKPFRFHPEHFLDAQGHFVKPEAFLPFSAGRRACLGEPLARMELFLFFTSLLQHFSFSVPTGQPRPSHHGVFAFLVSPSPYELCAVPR

Sequence of Cytochrome P450 2C19 (P33261 whole entry): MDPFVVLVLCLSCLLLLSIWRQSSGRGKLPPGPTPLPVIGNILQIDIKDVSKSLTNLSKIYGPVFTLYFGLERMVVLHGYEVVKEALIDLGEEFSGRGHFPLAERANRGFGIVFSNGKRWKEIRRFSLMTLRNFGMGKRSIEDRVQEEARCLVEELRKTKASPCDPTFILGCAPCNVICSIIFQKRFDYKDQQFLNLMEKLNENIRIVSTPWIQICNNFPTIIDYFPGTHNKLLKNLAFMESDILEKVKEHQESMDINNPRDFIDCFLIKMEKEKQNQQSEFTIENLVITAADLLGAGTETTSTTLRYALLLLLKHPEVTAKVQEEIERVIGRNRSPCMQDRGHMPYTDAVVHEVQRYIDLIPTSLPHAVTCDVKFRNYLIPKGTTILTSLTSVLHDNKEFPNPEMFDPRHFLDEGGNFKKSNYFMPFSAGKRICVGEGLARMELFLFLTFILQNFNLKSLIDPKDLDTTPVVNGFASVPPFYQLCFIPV

SMILES: COc1ccc(COC(=O)N/N=C(\C)CC(=O)Nc2c(C)cc(C)cc2C)cc1
- AC50 (Cytochrome P450 2C19; read-out: AC50): 25.1 µM (inconclusive)
- AC50 (Cytochrome P450 1A2): 22.4 µM (inconclusive)

SMILES: c1ccc2c(CNC3CCCCC3)c[nH]c2c1
- AC50 (INS1): 8.45 µM (active)

SMILES: COc1cccc(Nc2ncc3nc(C)c(=O)n(-c4ccccc4)c3n2)c1
- AC50 (Cytochrome P450 2C19; read-out: AC50): 25.1 µM (inconclusive)
- AC50 (Cytochrome P450 2C9): 31.6 µM (inconclusive)

SMILES: COc1ccc(C2=NCCn3nc4cc([N+](=O)[O-])ccc4c32)cc1
- EC50 [1]: > 195 µM (not active)

SMILES: O=C(O)/C=C\C(=O)Nc1ccc2c(c1)C(=O)c1cc(F)ccc1-2
- AC50 (Cytochrome P450 1A2): 0.794 µM (inconclusive)

SMILES: COc1ccc(S(=O)(=O)Nc2ccccc2C(=O)N2CCOCC2)cc1Cl
- EC50 [1]: 46 µM (active)

SMILES: Cn1c(=O)c(-c2cccs2)nc2cnc(N3CCNCC3)nc21
- AC50 (Cytochrome P450 3A4): 25.1 µM (inconclusive)
- AC50 (Cytochrome P450 2C9): 39.8 µM (inconclusive)

SMILES: COc1ccc(OC)c(NC(S)=NCc2cccnc2)c1
- EC50 [1]: > 195 µM (not active)

SMILES: O=C(O)c1ccc(NCc2nc3cc4ccccc4cc3[nH]2)cc1
- AC50 (Cytochrome P450 1A2): 5.01 µM (inconclusive)

SMILES: Cc1cc(C)c(NC(=O)CSc2nnc(Cc3cccn3C)n2-c2ccc(F)cc2)c(C)c1
- AC50 (Cytochrome P450 2C19; read-out: AC50): 28.2 µM (inconclusive)
- AC50 (Cytochrome P450 1A2): 2.51 µM (inconclusive)

SMILES: Cc1ccc(-n2c(S)nnc2-c2cc(C)n(C)n2)cc1
- AC50 (Cytochrome P450 1A2): 28.2 µM (inconclusive)

SMILES: COC(=O)c1sccc1-c1ccc(C(=O)Nc2cccnc2)o1
- AC50 (Cytochrome P450 1A2): 0.282 µM (inconclusive)

SMILES: COC(=O)[C@@]1(Cc2ccc(OC)cc2)[C@H]2c3cc(C(=O)N(C)C)n(CCc4ccccn4)c3C[C@H]2CN1C(=O)c1ccccc1
- AC50 (Cytochrome P450 2C19; read-out: AC50): 39.8 µM (inconclusive)

SMILES: Cc1cc(C)c(NC(=O)C(C)Sc2nnc(-c3ccco3)n2-c2ccccc2)c(C)c1 (configuration not stated)
- AC50 (Cytochrome P450 1A2): 22.4 µM (inconclusive)

SMILES: COC(=O)[C@H](Cc1ccccc1)N(Cc1ccccc1)S(=O)(=O)N(Cc1ccccc1)[C@@H](Cc1ccccc1)C(=O)OC
- AC50 (INS1): 4.51 µM (active)

SMILES: Cc1nc2ccccn2c1C(=O)CSc1ccccc1Cl
- AC50 (Cytochrome P450 2D6): 25.1 µM (inconclusive)
- AC50 (Cytochrome P450 3A4): 12.6 µM (inconclusive)

SMILES: COCCn1c(=O)c(-c2cc(F)cc(F)c2)nc2cnc(N3CCN(C)CC3)nc21
- AC50 (Cytochrome P450 1A2): 15.8 µM (inconclusive)
- AC50 (Cytochrome P450 2C9): 39.8 µM (inconclusive)

SMILES: CCCOc1ccc(N2CC(C(=O)NC(C)C)CC2=O)cc1 (configuration not stated)
- EC50 [1]: > 195 µM (not active)

SMILES: COc1ccccc1CNC(=O)Cn1nnc(-c2ccncc2)n1
- AC50 (Cytochrome P450 2D6): 2.24 µM (inconclusive)
- AC50 (Cytochrome P450 3A4): 3.16 µM (inconclusive)

SMILES: Cn1cccc1C(=O)N1CCC[C@@]2(CCN(Cc3ccccc3)C2)C1
- AC50 (Cytochrome P450 1A2): 10 µM (inconclusive)
- AC50 (Cytochrome P450 3A4): 5.01 µM (inconclusive)

SMILES: COC(=O)CN1C(=O)Nc2ccc(C)cc2C1c1ccccc1 (configuration not stated)
- EC50 [1]: > 195 µM (not active)

SMILES: NC(=O)C1CCN(C(=O)OCc2ccccc2)CC1
- AC50 (Cytochrome P450 2C19; read-out: AC50): 11.2 µM (inconclusive)

SMILES: CN1CCN(c2ncc3ncc(=O)n(CCc4ccccc4)c3n2)CC1
- AC50 (Cytochrome P450 2D6): 20 µM (inconclusive)
- AC50 (Cytochrome P450 3A4): 15.8 µM (inconclusive)

SMILES: Cc1ccc(NC(=O)C2CCCN2S(=O)(=O)c2ccc3c(c2)n(C)c(=O)c(=O)n3C)cc1C (configuration not stated)
- EC50 [1]: > 195 µM (not active)

SMILES: COc1ccccc1CN1CC2(CCN(C(=O)c3cnccn3)CC2)C1
- AC50 (Cytochrome P450 3A4): 20 µM (inconclusive)

SMILES: Cc1ccc(C(=O)NCCNC(=O)CN2CCOCC2)cc1
- AC50 (Cytochrome P450 2C19; read-out: AC50): 0.708 µM (inconclusive)
- AC50 (Cytochrome P450 3A4): 28.2 µM (inconclusive)

SMILES: O=C(O)c1cc(-c2ccc3cc4c(cc3c2)OCO4)nc2ccccc12
- AC50 (Cytochrome P450 1A2): 3.16 µM (inconclusive)

SMILES: COc1ccc(NC(=O)N2CCC3(CC2)CCN(C(=O)c2csnn2)CC3)cc1
- AC50 (Cytochrome P450 1A2): 6.31 µM (inconclusive)
- AC50 (Cytochrome P450 3A4): 12.6 µM (inconclusive)

SMILES: O=C(COc1cccnc1[N+](=O)[O-])Nc1cc(S(=O)(=O)N2CCCCC2)ccc1Cl
- EC50 [1]: > 195 µM (not active)

SMILES: C/C(=C/C(=O)NCc1ccccc1)C(=O)O
- AC50 (Cytochrome P450 2C19): inconclusive
- AC50 (Cytochrome P450 2C9): 0.0398 µM (inconclusive)

SMILES: CC[C@@H]1C/C=C\Cc2ccccc2[C@H](C(=O)C[C@@H](O)CC(C)=O)OC1=O
- AC50 (INS1): > 260 µM (inactive)

SMILES: CCC(=O)N(C)/C=C1\Sc2ccccc2C1=O
- AC50 (Cytochrome P450 3A4): 14.1 µM (inconclusive)
- AC50 (Cytochrome P450 2C9): 12.6 µM (inconclusive)

SMILES: Cc1ccc(C(=O)COC(=O)c2ccccc2N2C(=O)C3C4CCC(C4)C3C2=O)cc1C (configuration not stated)
- AC50 (Cytochrome P450 2C9): 2 µM (inconclusive)

SMILES: Cc1cnc(CNc2nc(-c3ccccc3C)nc3ccccc23)cn1
- AC50 (Cytochrome P450 2D6): 39.8 µM (inconclusive)
- AC50 (Cytochrome P450 3A4): 10 µM (inconclusive)

SMILES: Cc1cc(=O)oc(C)c1C(=O)NCCCN1CCN(c2ccc(F)cc2)CC1
- AC50 (Cytochrome P450 2D6): 15.8 µM (inconclusive)
- AC50 (Cytochrome P450 2C9): 15.8 µM (inconclusive)

SMILES: COc1ccc(/C=N\NC(=O)C2C(=O)NCC2c2ccccc2)cc1O (configuration not stated)
- AC50 (Cytochrome P450 2D6): 7.94 µM (inconclusive)
- AC50 (Cytochrome P450 3A4): 39.8 µM (inconclusive)
- AC50 (Cytochrome P450 2C9): 35.5 µM (inconclusive)

SMILES: Cc1ccc(NC(=O)CSCc2cc(=O)n3cc(C)sc3n2)c(C)c1
- EC50 [1]: > 195 µM (not active)

SMILES: O=C(c1cccc(F)c1)N1CCC[C@@]2(CCN(Cc3nccs3)C2)C1
- AC50 (Cytochrome P450 2D6): 20 µM (inconclusive)
- AC50 (Cytochrome P450 1A2): 12.6 µM (inconclusive)

SMILES: c1ccc(-c2n[nH]c(-c3ccccc3)c2-c2nc3ccccc3[nH]2)cc1
- AC50 (Cytochrome P450 2C19; read-out: AC50): 22.4 µM (inconclusive)

SMILES: CCCCCC(=O)O[C@H](CC(=O)O)C[N+](C)(C)C
- AC50 (Cytochrome P450 1A2): 31.6 µM (inconclusive)

SMILES: CC(C)C(NC(=O)C1CCCCC1)C(=O)NCc1ccccn1 (configuration not stated)
- AC50 (Cytochrome P450 3A4): 15.8 µM (inconclusive)

SMILES: Cc1ccccc1OCC(=O)NC(=S)Nc1ccc(N2CCOCC2)c(Cl)c1
- AC50 (Cytochrome P450 1A2): 12.6 µM (inconclusive)
- AC50 (Cytochrome P450 3A4): 14.1 µM (inconclusive)
- AC50 (Cytochrome P450 2C9): 15.8 µM (inconclusive)

SMILES: O=C(Oc1ccccc1[N+](=O)[O-])c1cccnc1
- AC50 (Cytochrome P450 2C9): 15.8 µM (inconclusive)

SMILES: CCOc1ccc(NC(=O)c2cccnc2C(=O)O)cc1
- EC50 [1]: > 195 µM (not active)

SMILES: Cc1cccc(C(=O)NNC(=O)C2CCCO2)c1 (configuration not stated)
- AC50 (Cytochrome P450 2C19; read-out: AC50): 5.01 µM (inconclusive)

SMILES: COc1ccc(NC(=O)Cn2cccc2)c(OC)c1
- AC50 (Cytochrome P450 2C9): 7.08 µM (inconclusive)

SMILES: CCNC(=O)C1CC(=O)OC12CCCCC2 (configuration not stated)
- AC50 (Cytochrome P450 2C9): 25.1 µM (inconclusive)

SMILES: Cc1ccnc(NC(=O)c2cccc(NC(=O)COc3ccccc3)c2)c1
- AC50 (Cytochrome P450 2D6): 17.8 µM (inconclusive)
- AC50 (Cytochrome P450 2C9): 4.47 µM (inconclusive)

SMILES: O=C1O[C@@H]([C@H](O)[C@H](O)[C@H](O)CO)[C@@H](O)[C@@H]1O
- AC50 (Cytochrome P450 2C19): inconclusive

SMILES: O=C(CSc1nnc(CCc2ccccc2)n1-c1ccc(Cl)cc1)c1ccccc1
- EC50 [1]: > 195 µM (not active)

SMILES: Fc1ccc(Oc2nc(-c3ccccn3)nc3ccccc23)cc1
- AC50 (INS1): 4.84 µM (active)

SMILES: COCCCN(Cc1ccco1)C(=O)CSc1nc2ccc[nH]c-2n1
- EC50 [1]: > 195 µM (not active)

SMILES: O=C(c1ccccc1)N1CCSC1=S
- AC50 (Cytochrome P450 2C19; read-out: AC50): 25.1 µM (inconclusive)

SMILES: CC1(C)CC(=O)C(/C=N/CCN2CCN(C(=S)Nc3ccc(F)cc3)CC2)=C(O)C1
- AC50 (Cytochrome P450 3A4): 25.1 µM (inconclusive)
- AC50 (Cytochrome P450 2C9): 25.1 µM (inconclusive)

SMILES: CCOC(=O)c1cc2c(=O)n3cccc(C)c3nc2n(CCOC)/c1=N\C(C)=O
- EC50 [1]: > 195 µM (not active)
